Laboratory results taken from patent US7772230B2, “Chroman compound, processes for its preparation, and its pharmaceutical use” (China Pharmaceutical University, priority 2006, dated 2010).

Assays:
[1] = target: T1, rapidly delayed rectifier potassium channel current (IKr) (Cavia porcellus, UniProt O08703); assay: whole cell patch clamp on isolated Guinea pig myocardial cells, IKr; assay type: cell-based; conditions: Guinea pig ventricular myocytes, current recorded 10 min after administration, 25-30° C.
T1 construct: the Guinea pig myocardial cells are separated with enzymolysis; endogenous in cells; host or cells: freshly isolated guinea pig ventricular myocytes
T1 sequence (O08703 1-1294): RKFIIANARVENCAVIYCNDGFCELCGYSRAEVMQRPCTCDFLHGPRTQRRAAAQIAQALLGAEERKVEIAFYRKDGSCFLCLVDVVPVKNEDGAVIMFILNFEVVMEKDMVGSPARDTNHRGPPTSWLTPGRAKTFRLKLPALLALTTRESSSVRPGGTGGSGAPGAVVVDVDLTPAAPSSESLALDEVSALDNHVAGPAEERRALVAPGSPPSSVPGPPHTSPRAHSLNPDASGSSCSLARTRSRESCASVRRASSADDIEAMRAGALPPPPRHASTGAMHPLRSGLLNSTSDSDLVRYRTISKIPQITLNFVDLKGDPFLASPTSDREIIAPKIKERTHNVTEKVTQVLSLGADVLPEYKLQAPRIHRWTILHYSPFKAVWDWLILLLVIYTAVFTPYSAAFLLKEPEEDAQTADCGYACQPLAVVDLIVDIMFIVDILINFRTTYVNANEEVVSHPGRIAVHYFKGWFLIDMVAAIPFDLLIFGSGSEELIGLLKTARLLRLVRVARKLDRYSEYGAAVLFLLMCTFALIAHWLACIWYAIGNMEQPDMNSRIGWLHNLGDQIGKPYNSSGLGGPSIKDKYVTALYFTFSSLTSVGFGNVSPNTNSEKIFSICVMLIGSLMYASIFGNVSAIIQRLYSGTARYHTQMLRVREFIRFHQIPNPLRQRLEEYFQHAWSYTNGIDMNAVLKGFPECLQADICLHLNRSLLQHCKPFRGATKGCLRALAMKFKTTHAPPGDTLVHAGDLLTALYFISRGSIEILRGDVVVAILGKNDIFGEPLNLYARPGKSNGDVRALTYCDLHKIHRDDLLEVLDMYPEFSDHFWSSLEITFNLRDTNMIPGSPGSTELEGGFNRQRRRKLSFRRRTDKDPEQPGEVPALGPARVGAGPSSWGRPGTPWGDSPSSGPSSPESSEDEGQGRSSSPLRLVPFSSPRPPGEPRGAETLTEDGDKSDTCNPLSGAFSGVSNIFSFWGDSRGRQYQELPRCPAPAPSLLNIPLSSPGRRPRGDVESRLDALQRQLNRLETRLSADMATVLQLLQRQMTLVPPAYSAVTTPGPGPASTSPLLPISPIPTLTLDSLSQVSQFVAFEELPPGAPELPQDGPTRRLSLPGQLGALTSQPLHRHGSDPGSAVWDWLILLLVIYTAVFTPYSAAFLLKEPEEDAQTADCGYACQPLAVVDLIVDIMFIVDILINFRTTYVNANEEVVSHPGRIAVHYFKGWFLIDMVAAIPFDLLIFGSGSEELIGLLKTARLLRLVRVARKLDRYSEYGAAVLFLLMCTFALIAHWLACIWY
Description: (§1) Experimental title: using vitro pachynsis myocardial cells of Guinea pig, the activity is determined by the whole cell membrane Patch clamp technology.
(§2) experimental mechanism: the Guinea pig myocardial cells are separated with enzymolysis, and the rapid activation component and the slowly activation component of the delayed commutating current in the cardiac muscle cells are recorded by whole cell membrane Patch clamp. Each compound is added to the perfuse liquid for measuring current after dissolved at least 10 min. The collected data is analyzed in pulse-fit, the IC50 value for IKr and IKs of each compound is calculated.
(§3) animals: Guinea pigs, male, weight 300-400 g.
(§4) solution: calcium free Tyrode's solution
(§5) pole inner solution (mmol/L): KCl 140, MgCl2 1.0, K2-ATP 4.0, EGTA 10, HEPES 5.0, pH=7.2
(§6) Experimental apparatus: Patch clamp magnifier (EPC-10, Germany), inverted microscope (TE-2000U, Nikon, Japan), microelectrode puller (PIP5, Germany), micro-manipulator (PCS-5000, Burleigh, USA).
(§7) Then, the hearts are taken off, their ventricle are cut to smash and incubated in fresh enzyme solution at 37° C., the solution is gently stirred for 5-10 min, pouring off the supernatant fluid, diluted with Tyrode's solution containing CaCl2 1 mmol/L, that is for the first cell stored liquor; with the same operation to obtain the second and the third cell storages. […] The cells are laid for 2 h before use.
(§8) the cell liquor is put into the cell pool, after the cells adhering to the wall, they are perfused with outer liquor of the cells at the rate of 2 ml/min, cells that having calcium resistance and clear transverse striations are to be selected, the poles are moved to the cell surface by tridimensional manipulator. The high resistance block are formed between the pole top and the cell surface by under pressure, and more over using reduced pressure to broking cell membrane, the pole inner liquor can be connected to the cell inner liquor so as to form the whole cell state. After the compensation to the capacitance and series impedance compensation the voltage tongs are recorded. The signal is led by Ag/AgCl pole and magnified by the Patch clamp magnifier, the computer dispenses presetting stimulate pulse by procedure and add to cells, and the electrical signal generated from cells is translated by transducer, and stored in computer. All of the stimulate signal control, electric current, data sampling and analyses are carried out by pulse V8.60. Azimilide is used as positive drugs in the research. Each test compound is dissolved in anhydrous ethanol, diluted to the same concentration by water, and added to outer cell liquor, the top concentration of ethanol is 0.1%.
(§9) Stimulate parameter: the record of IKr and IKS: the back value of the either current is recorded. Using extra-cellular fluid containing 0.1 mmol/L CdCl2 for perfusion, sustaining the voltage at −50 mV, depolarized to 60 mV, keeping for 500 ms, and sustaining the voltage at −50 mV, keeping for 1000 ms, recording IKr; and then binding the voltage at −50 mV for 1000 ms, recording IKs.

[2] = target: T2, slowly delayed rectifier potassium channel current (IKs) (Cavia porcellus, UniProt O70344); assay: whole cell patch clamp on isolated Guinea pig myocardial cells, IKs; assay type: cell-based; conditions: Guinea pig ventricular myocytes, current recorded 10 min after administration, 25-30° C.
T2 construct: the Guinea pig myocardial cells are separated with enzymolysis; endogenous in cells; host or cells: freshly isolated guinea pig ventricular myocytes
T2 sequence (O70344 1-671): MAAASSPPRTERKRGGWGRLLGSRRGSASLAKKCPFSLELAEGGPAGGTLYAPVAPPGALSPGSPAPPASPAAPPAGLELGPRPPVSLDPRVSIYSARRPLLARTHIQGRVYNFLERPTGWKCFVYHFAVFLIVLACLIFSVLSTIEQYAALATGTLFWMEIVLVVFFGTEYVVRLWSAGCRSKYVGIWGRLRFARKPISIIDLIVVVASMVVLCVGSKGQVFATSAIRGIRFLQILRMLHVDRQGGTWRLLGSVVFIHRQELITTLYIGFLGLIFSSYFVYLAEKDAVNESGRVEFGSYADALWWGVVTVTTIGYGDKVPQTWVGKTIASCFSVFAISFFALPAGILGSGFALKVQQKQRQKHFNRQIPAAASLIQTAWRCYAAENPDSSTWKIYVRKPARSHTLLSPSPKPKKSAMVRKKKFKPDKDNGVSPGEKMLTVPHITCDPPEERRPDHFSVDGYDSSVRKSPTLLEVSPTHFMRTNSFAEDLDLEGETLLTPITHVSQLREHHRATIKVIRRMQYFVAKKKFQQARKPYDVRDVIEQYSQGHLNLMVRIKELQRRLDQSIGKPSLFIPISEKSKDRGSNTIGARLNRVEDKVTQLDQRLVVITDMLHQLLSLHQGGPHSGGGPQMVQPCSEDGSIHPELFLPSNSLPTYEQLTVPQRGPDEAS
T2 sequence (P41686 1-245 partner): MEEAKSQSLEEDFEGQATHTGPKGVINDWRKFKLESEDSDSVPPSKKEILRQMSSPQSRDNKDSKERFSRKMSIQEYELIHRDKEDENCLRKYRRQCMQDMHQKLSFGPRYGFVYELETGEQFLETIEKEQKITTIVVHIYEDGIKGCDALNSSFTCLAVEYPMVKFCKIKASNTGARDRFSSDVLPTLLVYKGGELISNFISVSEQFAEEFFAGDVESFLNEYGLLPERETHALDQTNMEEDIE
Description: as §1, §2, §3, §4, §5, §6, §7, §8, §9

SMILES	IC50 [1] [nM]	IC50 [2] [nM]	melting point [°C]
CCCOc1ccc2c(c1)/C(=N/N1CC(=O)N(CCCCN3CCN(C)CC3)C1=O)CCO2.O=C(O)/C=C/C(=O)O [Ib example 3, 1-[4-(2,3-dihydro-6-propoxy-)benzopyran]imino-3-[4-(methyl-1-piperazine)butyl]-2,4-imidazole dione difumarate]	11800	1280	218 to 220
CCCCOc1ccc2c(c1)/C(=N/N1CC(=O)N(CCCCN3CCN(C)CC3)C1=O)CCO2.O=C(O)/C=C/C(=O)O [Ib example 4, 1-[4-(2,3-dihydro-6-butoxy)benzopyran]imino-3-[4-(methyl-1-piperazine)butyl]-2,4-imidazole dione difumarate]	180	22	208 to 210
